Test results from patent US12180222B2, “Crystal forms of thiophene derivatives” (Tianjin Hemay Pharmaceutical Co., Ltd, priority 2018, dated 2024).

Assays:
Type in all cases: physicochemical
[1] = Moisture absorption stability / hygroscopicity (RH=80%); details: RH=80% (saturated ammonium chloride solution) until weight balanced
Method: Moisture absorption of crystal form III of (S)—N-[5-[1-(3-ethoxy-4-methoxyphenyl)-2-(methylsulfonyl)ethyl]-4,6-dioxo-5,6-dihydro-4H-thieno[3,4-c]pyrrole-1-yl]acetamide was studied. Crystal form III of (S)—N-[5-[1-(3-ethoxy-4-methoxyphenyl)-2-(methylsulfonyl)ethyl]-4,6-dioxo-5,6-dihydro-4H-thieno[3,4-c]pyrrole-1-yl]acetamide was placed in a drier containing saturated ammonium chloride solution (RH=80%) until weight was balanced. The crystal form was tested with XRPD.
Crystal form III of (S)—N-[5-[1-(3-ethoxy-4-methoxyphenyl)-2-(methylsulfonyl)ethyl]-4,6-dioxo-5,6-dihydro-4H-thieno[3,4-c]pyrrole-1-yl]acetamide prepared according to the process of Example 1 was tested.

[2] = High temperature stability (sealed oven at 40° C., liquid chromatogram and DSC)
Method: Crystal form III of (S)—N-[5-[1-(3-ethoxy-4-methoxyphenyl)-2-(methylsulfonyl)ethyl]-4,6-dioxo-5,6-dihydro-4H-thieno[3,4-c]pyrrole-1-yl]acetamide prepared according to the process of Example 1 was placed in a sealed oven at 40° C. After 1 month, liquid chromatogram and DSC were tested.

[3] = Accelerated stability (40° C. and Rh=75%, liquid chromatogram and DSC)
Method: Crystal form III of (S)—N-[5-[1-(3-ethoxy-4-methoxyphenyl)-2-(methylsulfonyl)ethyl]-4,6-dioxo-5,6-dihydro-4H-thieno[3,4-c]pyrrole-1-yl]acetamide prepared according to the process of Example 1 was placed in a stability text box at 40° C. and Rh=75%. After 1 month, liquid chromatogram and DSC were tested.

[4] = Aqueous solution balance stability (crystal form by XRPD after equilibrium in water); details: 37° C., 24 hours
Method: About 0.5 g of crystal form III of (S)—N-[5-[1-(3-ethoxy-4-methoxyphenyl)-2-(methylsulfonyl)ethyl]-4,6-dioxo-5,6-dihydro-4H-thieno[3,4-c]pyrrole-1-yl]acetamide was added to 40 mL of water. The mixture was stirred at 37° C. for 24 hours. The suspension was filtered. After wet solid was dried, crystal form of powders was tested with X-ray powder diffraction (XRPD).

[5] = Dissolution rate of crystal form in water; details: about 25 mg in 900 mL water, 37° C., rotating speed 100/minute
Method: The crystal form III of (S)—N-[5-[l-(3-ethoxy-4-methoxyphenyl)-2-(methylsulfonyl)ethyl]-4,6-dioxo-5,6-dihydro-4H-thieno[3,4-c]pyrrole-1-yl]acetamide prepared according to the process in Example 1 was tested.
About 25 mg of crystal form III of (S)—N-[5-[1-(3-ethoxy-4-methoxyphenyl)-2-(methylsulfonyl)ethyl]-4,6-dioxo-5,6-dihydro-4H-thieno[3,4-c]pyrrole-1-yl]acetamide was added to 900 mL of water. The mixture was stirred at a rotating speed of 100/minute at 37° C. for 90 minutes. The supernatant was filtered and diluted. The concentration of the diluted solution (a mg/mL) was determined by ultraviolet spectrophotometer. The dissolution rate was calculated according to the formula 900a/25×100%.

With `CCOc1cc([C@@H](CS(C)(=O)=O)N2C(=O)c3csc(NC(C)=O)c3C2=O)ccc1OC` [Crystal Form III, (S)—N-[5-[1-(3-ethoxy-4-methoxyphenyl)-2-(methylsulfonyl)ethyl]-4,6-dioxo-5,6-dihydro-4H-thieno[3,4-c]pyrrole-1-yl]acetamide] the “Moisture Absorption %)” value [1] was 1.17%, the “Weight Increase” value ([1]; mAPI 0.511 g) was 0.006 g and the “stability under high temperature conditions” value ([2]; 40° C., 1 month) was “good stability”. The “Relevant Substance Contents at Day 0 (%)” value ([2]; Day 0, before storage at 40° C.) was 0.07%, the “Relevant Substance Contents after 1 Month (%)” value ([2]; storage 40° C., sealed oven, 1 month) was 0.09% and the “stability under high-temperature and high-humidity conditions” value ([3]; 40° C. and Rh=75%, 1 month) was “good stability”. The “Relevant Substance Contents at Day 0 (%)” value ([3]; Day 0, before storage at 40° C. RH = 75%) was 0.07%, the “Relevant Substance Contents after 1 Month (%)” value ([3]; storage 40° C. RH = 75%, 1 month) was 0.09% and the stability in water [4] was “good stability”. The “Dissolution Rate (%)” value ([5]; time 0 min) was 0%, the “Dissolution Rate (%)” value ([5]; time 15 min) was 32.2% and the “Dissolution Rate (%)” value ([5]; time 30 min) was 46.3%. The “Dissolution Rate (%)” value ([5]; time 45 min) was 55.1%, the “Dissolution Rate (%)” value ([5]; time 60 min) was 61.8% and the “Dissolution Rate (%)” value ([5]; time 75 min) was 66.5%. For the same compound, the “Dissolution Rate (%)” value ([5]; time 90 min) was 71.5%.
